# Results: patent publication US10537609B2, “MUC1 decoy peptides for treatment and prevention of bacterial infections” (priority 2014, dated 2020)
# What was measured:
# [1] = tested on: Pseudomonas aeruginosa lung infection; assay: Mouse survival following Pseudomonas aeruginosa lung infection; format: in vivo, BALB/c mice; conditions: Pa intranasally at LD90 (2.0×10^7 CFU/mouse); MUC1-ED 2.5 μg/mouse, cefepime 1.0 μg/mouse; n=7/group
# Description: FIG. 14. Effect of E. coli MUC1-ED With or Without Cefepime on Mouse Survival Following Pseudomonas aeruginosa Lung Infection. Pseudomonas aeruginosa was administered intranasally to BALB/c mice at an LD90 (2.0×10^7 CFU/mouse) with PBS control or E. coli-expressed MUC1-ED (2.5 μg/mouse). Simultaneously, PBS or cefepime (1.0 μg/mouse) was administered intraperitoneally, and mouse survival was measured daily (n=7/group).
# P. aeruginosa was administered intranasally to groups of seven BALB/c mice at an LD90 (2.0×10^7 CFU/mouse). The control group (group #1) received PBS intraperitoneally as therapy; group #2 received MUC1-ED (2.5 μg/mouse) intraperitoneally; group #3 received cefepime (1.0 μg/mouse) intraperitoneally; group #4 received MUC1-ED (2.5 μg/mouse) and cefepime (1.0 μg/mouse) simultaneously, intraperitoneally. The MUC1-ED was E. coli-expressed deglycosylated peptide having the amino acid sequence set forth in SEQ ID NO:2.
# [2] = tested on: P. aeruginosa (Pa) adhesion to A549 cells; assay: Bacterial adhesion assay: Pa preincubated with test material, then adhesion to A549 cell monolayers; conditions: for blocking of Pa adhesion to ECs by free monosaccharides: Pa preincubated 30 min with 5, 10 or 25 mM, separately or in combination (FIG. 10); for reduction of Pa adhesion: Pa preincubated 30 min with shed MUC1-ED preparation, adhesion to fresh A549 monolayers, compared with respective controls (FIG. 11)
# MUC1-NEU1 association = conditions: A549 cells preincubated 30 min with 5.0 μM, then 10 ng/ml Pa flagellin 30 min
# Pa lung infection = assay: Mouse model of Pa lung infection, Pa CFU in BALF and lungs; conditions: Pa preincubated with MUC1-ED; 10^5 CFU/mouse i.t.; 48 h and 72 h post-challenge; vs PBS control
Compound,blocking of Pa adhesion to ECs by free monosaccharides [2],reduction of Pa adhesion [2],other results
"CO/N=C(\C(=O)N[C@@H]1C(=O)N2C(C(=O)[O-])=C(C[N+]3(C)CCCC3)CS[C@H]12)c1csc(N)n1 [cefepime, reference compound]",,,survival over seven days [1]: ~62.5%
"CC(=O)N[C@H]1C(O)O[C@H](CO)[C@@H](O)[C@@H]1O (some centres unmarked) [N-acetylglucosamine, reference compound]","None of these monosaccharides, either separately or in combination, blocked Pa adhesion to ECs",,
N#CC(=C(/N)Sc1ccccc1N)/C(C#N)=C(\N)Sc1ccccc1N [U0126],,,effect on MUC1-NEU1 co-immunoprecipitation (MUC1-NEU1 association): failed to alter MUC1-NEU1 co-immunoprecipitation
MUC1-ED: shed MUC1 ectodomain in airway EC culture supernates,,,"MUC1-ED concentrations capable of inhibiting Pa adhesion in vitro ([2]; shed MUC1-ED in EC culture supernates (FIGS. 9A, 9B)): ≤ 0.63 μg/m1"
MUC1-ED from E. coli transformed with pMUC1: deglycosylated form of MUC1-ED prepared by transformation of Escherichia coli with a MUC1 expression plasmid (pMUC1); SEQ ID NO:2 per b204,,93%,"maximum inhibition of Pa adhesion ([2]; comparison in the discussion, single repeat vs MUC1-ED containing 15 repeats): > 90%; survival over seven days [1]: ~45%; number of Pa recovered from BALF (CFU) (Pa lung infection): reduced the number of Pa recovered; number of Pa recovered from lungs (CFU) (Pa lung infection): reduced the number of Pa recovered"
"CC(=O)N[C@H]1C(O)O[C@H](CO)[C@H](O)[C@@H]1O (some centres unmarked) [N-acetylgalactosamine, reference compound]","None of these monosaccharides, either separately or in combination, blocked Pa adhesion to ECs",,
"O=C[C@H](O)[C@@H](O)[C@@H](O)[C@H](O)CO [galactose, reference compound]","None of these monosaccharides, either separately or in combination, blocked Pa adhesion to ECs",,
MUC1-ED from GalNAc-O-bn-treated ECs: MUC1-ED from supernates of airway ECs cultured with the O-glycosylation inhibitor benzyl-N-acetyl-α-galactosaminide,,88%,
MUC1-ED from tunicamycin-treated ECs: MUC1-ED from supernates of airway ECs cultured with the N-glycosylation inhibitor tunicamycin,,did not reduce Pa adhesion,
desialylated MUC1-ED from Ad-NEU1-infected ECs: MUC1-ED prepared from culture supernates of airway ECs infected with Ad-NEU1,,~65%,
